From patent US20120065228A1, “COMPOSITIONS AND METHODS FOR TREATING, CONTROLLING, REDUCING, OR AMELIORATING OCULAR INFLAMMATORY WITH LOWER RISK OF INCREASED INTRAOCULAR PRESSURE” (priority 2007, published 2012)

What was measured:
[1] = test system: IL-1β-induced PGE2 release in human conjunctival fibroblasts (HConF); experiment: IL-1β-induced PGE2 release in human conjunctival fibroblasts (ELISA); assay type: cell-based; settings: 3-1000 nM, 18 hours
Procedure: Human conjunctival fibroblasts (HConF) were seeded in 24-well plates in complete Fibroblast Medium (FM) which contained 2% fetal bovine serum (FBS) and Fibroblast Growth Supplement (FGS). After reaching confluence (about 95%), cells were conditioned in basic FM that had been supplemented with 0.5% charcoal-dextran treated fetal bovine serum (CD-FBS) and without Fibroblast Growth Supplement (FGS) for 24 hours. […] Plates were performed in triplicate. Culture media were evaluated for PGE2 release by ELISA.

[2] = test system: inflammation following cataract surgery; experiment: Clinical dose ranging study after cataract surgery: resolution of anterior chamber (AC) cells and flare; assay type: in vivo, human
Source text: There were 8 treatment groups in this study, consisting of three drug doses, vehicle and three dosing frequencies (see also Table 4-1): • Group A: 1% BOL-303242-X ophthalmic suspension, two times per day (BID) • Group B: 2% BOL-303242-X ophthalmic suspension, one time per day (QD) • Group C: 2% BOL-303242-X ophthalmic suspension, BID • Group D: 2% BOL-303242-X ophthalmic suspension, four times per day (QID) • Group E: 3% BOL-303242-X ophthalmic suspension, QD • Group F: 3% BOL-303242-X ophthalmic suspension, BID • Group G: 3% BOL-303242-X ophthalmic suspension, QID • Group H: Vehicle for BOL-303242-X (divided equally into QID, BID, and QD)
At Visit 3 (postoperative Day 1, 18 to 34 hours following surgery), subjects meeting all eligibility criteria were randomized to one of the treatment groups continuing to be studied, including vehicle, in a 1:1 ratio.
Subjects self-administered study drug, instilling 1 to 2 drops of study drug into the study eye: QID at approximately 4 hour intervals, BID at approximately 12 hour intervals, or QD once in the morning, for 14 days. The initial dose occurred in the clinic at Visit 3 and the final dose was on the day before Visit 6 (postoperative Day 15±1 day). Subjects were examined and evaluated according to the following schedule:
Visit 1 (screening), Visit 2 (cataract surgery), Visit 3 (postoperative Day 1), Visit 4 (postoperative Day 3±1 day), Visit 5 (postoperative Day 8±1 day), Visit 6 (postoperative Day 15±1 day), Visit 7 (postoperative Day 18±1 day). Subject assessments included adverse events (AEs), concomitant medications, ocular symptoms, pinholed Snellen visual acuity (VA), intraocular pressure (IOP), ocular signs (biomicroscopy), fundoscopy, and study drug drop sensation. In addition, subject diaries were collected and reviewed for accuracy and treatment compliance.
Among other criteria for inclusion in this study, subjects were those who: • were to be at least 18 years of age on the date the informed consent form (“ICF”) was signed and with the capacity to voluntarily provide consent; • were candidates for routine, uncomplicated cataract surgery (phacoemulsification with posterior chamber intraocular lens (“IOL”) implantation, not combined with any other surgery) in the study eye; • in the Investigator's opinion, had potential postoperative pinholed Snellen visual acuity (“VA”) of at least 20/200 or pinholed Decimal VA of 0.1 in the study eye; • had undergone routine, uncomplicated cataract surgery (phacoemulsification with posterior chamber IOL implantation, not combined with any other surgery) in the study eye; and • had ≧Grade 2 anterior chamber (“AC”) cells in the study eye.
Primary Efficacy: The primary efficacy endpoint for this study was the proportion of subjects with complete resolution of AC cells at Visit 5 (postoperative Day 8). Complete resolution of AC cells is defined as Grade 0 cells.
Secondary Efficacy: The secondary efficacy endpoints for this study were the proportions of subjects with Grade 0 pain at Visit 5 (postoperative Day 8) and at each visit, complete resolution of AC cells at each visit, complete resolution of AC cells and flare at each visit, complete resolution of AC flare at each visit, change from baseline to each follow-up visit in AC cells and AC flare combined and separately, ocular symptoms.

[3] = test system: COX-2; experiment: COX-2 protein in IL-1β-induced human conjunctival fibroblasts (Western blot); assay type: cell-based; settings: 2 h pretreatment, then 24 h with IL-1β
Procedure: Cells were washed with ice-cold PBS and lysed in cell lysis buffer (62.5 mM Tris-HCl, pH 6.8, 2% sodium dodecyl sulfate (SDS), 10% glycerol). Cells were sonicated, and centrifuged at 12.000 rpm and protein concentration was determined using the Micro BCA protein assay kit. Proteins in aliquots of cell lysate (˜20 μg protein) were separated by SDS-polyacrylamide electrophoresis (SDS-PAGE) on 10% gels and transferred to PVDF membranes. Membranes were blocked with 5% BSA and exposed to mouse anti-COX-2 antibody (Caymen). The blots were washed, and exposed to horseradish peroxidase-conjugated anti-mouse secondary antibody. After washing, blots were incubated in ECL (enhanced chemiluminescence) solutions and chemiluminescent bands were visualized using the FluorChem imaging system (AlphaInnotech, San Leandro, Calif.). Blots were then stripped and re-probed for glyceraldehyde 3-phosphate dehydrogenase (GAPDH) (Zymed) antibody as loading controls. The experiment was repeated 3 times. Analysis of Western blot band density for COX-2 and GAPDH in captured digital images was done using the Alpha-Innotech Chemi-Imager software (Alpha Innotech; San Leandro, Calif.). Levels of COX-2 protein were normalized to GAPDH.

[4] = 1% BID, Visit 5 (postoperative Day 8)
[5] = 1% BID, Visit 7 (postoperative Day 18)
[6] = 2% QD, Visit 5 (postoperative Day 8)
[7] = 2% QID, Visit 5 (postoperative Day 8)
[8] = 2% QID, Visit 6 (postoperative Day 15)
[9] = 2% QID, Visit 7 (postoperative Day 18)
[10] = 3% BID, Visit 5 (postoperative Day 8)
[11] = 3% BID, Visit 6 (postoperative Day 15)
[12] = 3% BID, Visit 7 (postoperative Day 18)
[13] = 3% QD, Visit 5 (postoperative Day 8)
[14] = 3% QD, Visit 6 (postoperative Day 15)
[15] = 3% QD, Visit 7 (postoperative Day 18)
[16] = 3% QID, Visit 5 (postoperative Day 8)
[17] = 3% QID, Visit 6 (postoperative Day 15)
[18] = 3% QID, Visit 7 (postoperative Day 18)

In the case of `Cc1ccc2c(NCC(O)(CC(C)(C)c3cc(F)cc4c3OCC4)C(F)(F)F)cccc2n1` (stereo not drawn) [BOL-303242-X], the “Production of PGE2 by IL-1β-induced HConF” value [1] is reported as “successfully inhibits”, the “Proportion of subjects with complete resolution of AC flare” value (“Proportion of subjects … of AC flare” for short) ([2]; 1% BID (printed 196 BID), Visit 7 (postoperative Day 18)) is reported as 56.7% and the “Proportion of subjects with complete resolution of AC cells” value [2, 4] is reported as 21.7%. The “Proportion of subjects with complete resolution of AC cells and flare combined” value (shortened to “Proportion … of AC cells and flare combined”) [2, 4] was 20.0%, the “Proportion of subjects … of AC flare” value [2, 4] was 41.7% and the “Proportion of subjects … of AC flare” value ([2]; 1% BID, Visit 6 (postoperative Day 15)) was 66.7%. The “Proportion of subjects with complete resolution of AC cells” value [2, 5] was 41.7%, the “Proportion … of AC cells and flare combined” value [2, 5] was 41.7% and the “Proportion of subjects … of AC flare” value ([2]; 2% BID, Visit 5 (postoperative Day 8)) was 50.0%. For the same compound, the “Proportion of subjects … of AC flare” value ([2]; 2% BID, Visit 6 (postoperative Day 15)) was 60.7%, the “Proportion of subjects with complete resolution of AC cells” value [2, 6] was 21.4% and the “Proportion … of AC cells and flare combined” value [2, 6] was 21.4%. For the same compound, the “Proportion of subjects … of AC flare” value [2, 6] was 42.9%, the “Proportion … of AC cells and flare combined” value ([2]; 2% QD, Visit 6 (postoperative Day 15)) was 35.7% and the “Proportion of subjects … of AC flare” value ([2]; 2% QID (printed 2% ND), Visit 6 (postoperative Day 15)) was 66.7%. The “Proportion of subjects with complete resolution of AC cells” value [2, 7] was 28.3%, the “Proportion … of AC cells and flare combined” value [2, 7] was 26.7% and the “Proportion of subjects … of AC flare” value [2, 7] was 51.7%. For the same compound, the “Proportion of subjects with complete resolution of AC cells” value [2, 8] was 43.3%, the “Proportion … of AC cells and flare combined” value [2, 8] was 41.7% and the “Proportion of subjects with complete resolution of AC cells” value [2, 9] was 53.396%. For the same compound, the “Proportion … of AC cells and flare combined” value [2, 9] was 53.3%, the “Proportion of subjects … of AC flare” value [2, 9] was 66.7% and the “Proportion of subjects … of AC flare” value ([2]; 3% BID, Visit 4 (postoperative Day 3)) was 38.3%. For the same compound, the “Proportion of subjects with complete resolution of AC cells” value [2, 10] was 25.0%, the “Proportion … of AC cells and flare combined” value [2, 10] was 23.3% and the “Proportion of subjects … of AC flare” value [2, 10] was 51.7%. For the same compound, the “Proportion of subjects with complete resolution of AC cells” value [2, 11] was 38.3%, the “Proportion … of AC cells and flare combined” value [2, 11] was 38.3% and the “Proportion of subjects … of AC flare” value [2, 11] was 51.7%. For the same compound, the “Proportion of subjects with complete resolution of AC cells” value [2, 12] was 43.3%, the “Proportion … of AC cells and flare combined” value [2, 12] was 43.3% and the “Proportion of subjects … of AC flare” value [2, 12] was 56.7%. For the same compound, the “Proportion of subjects … of AC flare” value ([2]; 3% QD, Visit 4 (postoperative Day 3)) was 35.6%, the “Proportion of subjects with complete resolution of AC cells” value [2, 13] was 25.4% and the “Proportion … of AC cells and flare combined” value [2, 13] was 23.7%. The “Proportion of subjects … of AC flare” value [2, 13] was 55.9%, the “Proportion of subjects with complete resolution of AC cells” value [2, 14] was 47.5% and the “Proportion … of AC cells and flare combined” value [2, 14] was 47.5%. The “Proportion of subjects … of AC flare” value [2, 14] was 66.1%, the “Proportion of subjects with complete resolution of AC cells” value [2, 15] was 47.5% and the “Proportion … of AC cells and flare combined” value [2, 15] was 47.5%. The “Proportion of subjects … of AC flare” value [2, 15] was 57.6%, the “Proportion of subjects with complete resolution of AC cells” value [2, 16] was 30.0% and the “Proportion … of AC cells and flare combined” value [2, 16] was 30.0%. The “Proportion of subjects … of AC flare” value [2, 16] was 55.0%, the “Proportion of subjects with complete resolution of AC cells” value [2, 17] was 38.3% and the “Proportion … of AC cells and flare combined” value [2, 17] was 36.7%. The “Proportion of subjects … of AC flare” value [2, 17] was 61.7%, the “Proportion of subjects with complete resolution of AC cells” value [2, 18] was 46.7% and the “Proportion … of AC cells and flare combined” value [2, 18] was 45.0%. For the same compound, the “Proportion of subjects … of AC flare” value [2, 18] was 58.3%, the “Anterior chamber cells, change from baseline, compared to vehicle” value (shortened to “Anterior chamber cells, change”) ([2]; Visit 4: 1% BID, 2% QID, 3% QD, 3% QID) was “Statistically significant mean decreases” and the “Anterior chamber cells, change” value ([2]; Visit 5: 1% BID, 2% QD, 2% QID, 3% QD, 3% BID, 3% QID) was “Statistically significant mean decreases”. The “Anterior chamber cells, change” value ([2]; Visit 6: 1% BID, 2% QID, QD, 3% BID, 3% QID) was “Statistically significant mean decreases”, the “Anterior chamber cells, change” value ([2]; Visit 7: 1% BID. 2% QD, 2% QID, QD, 3% BID, 3% QID) was “Statistically significant mean decreases” and the “Production of COX-2 by IL-1β-induced HConF” value [3] was “successfully inhibits”.
